Assay results: ChEMBL document CHEMBL4480418, “Antibacterial activity of indolyl-quinolinium derivatives and study their mode of action” (Bioorg Med Chem, 2019)
Converted amounts (≈) assume the structure as drawn.

What was measured:
Format in all cases: functional
[1] = tested on: Staphylococcus aureus; test: Antimicrobial activity against penicillin-resistant Staphylococcus aureus ATCC 29213 measured after 18 hrs by broth microdilution method; conditions: ATCC 29213, 18 h
[2] = tested on: Escherichia coli; test: Antimicrobial activity against Escherichia coli ATCC 25922 measured after 18 hrs by broth microdilution method; conditions: ATCC 25922, 18 h
[3] = tested on: Enterococcus faecalis; test: Antimicrobial activity against Enterococcus faecalis ATCC 29212 measured after 18 hrs by broth microdilution method; conditions: ATCC 29212, 18 h
[4] = tested on: Enterococcus faecium; test: Antimicrobial activity against drug-susceptible Enterococcus faecium ATCC 49624 measured after 18 hrs by broth microdilution method; conditions: ATCC 49624, 18 h
[5] = tested on: Klebsiella pneumoniae; test: Antimicrobial activity against NDM1 beta-lactamase expressing Klebsiella pneumoniae ATCC BAA-2470 measured after 18 hrs by broth microdilution method; conditions: ATCC BAA-2470, 18 h
[6] = tested on: Staphylococcus aureus; test: Antimicrobial activity against Staphylococcus aureus ATCC 25923 measured after 18 hrs by broth microdilution method; conditions: ATCC 25923, 18 h
[7] = tested on: Enterobacter cloacae; test: Antimicrobial activity against Ampc beta-lactamase expressing Enterobacter cloacae ATCC BAA-1143 measured after 18 hrs by broth microdilution method; conditions: ATCC BAA-1143, 18 h
[8] = tested on: Pseudomonas aeruginosa; test: Antimicrobial activity against multidrug-resistant Pseudomonas aeruginosa ATCC BAA-2108 measured after 18 hrs by broth microdilution method; conditions: ATCC BAA-2108, 18 h
[9] = tested on: Bacillus subtilis; test: Antibacterial activity against Bacillus subtilis 168 measured after 18 hrs by broth microdilution method; conditions: subsp. subtilis str. 168, 18 h
[10] = tested on: Enterococcus faecium; test: Antimicrobial activity against vancomycin-resistant Enterococcus faecium ATCC 700221 measured after 18 hrs by broth microdilution method; conditions: ATCC 700221, 18 h
[11] = tested on: Staphylococcus aureus; test: Antimicrobial activity against methicillin-resistant Staphylococcus aureus ATCC BAA-41 measured after 18 hrs by broth microdilution method; conditions: ATCC BAA-41, 18 h
[12] = tested on: Acinetobacter baumannii; test: Antimicrobial activity against multidrug-resistant Acinetobacter baumannii ATCC 19606 measured after 18 hrs by broth microdilution method; conditions: ATCC 19606 = CIP 70.34 = JCM 6841, 18 h
[13] = tested on: Escherichia coli; test: Antimicrobial activity against NDM1 beta -lactamse expressing Escherichia coli ATCC BAA-2469 measured after 18 hrs by broth microdilution method; conditions: ATCC BAA-2469, 18 h
[14] = tested on: Staphylococcus aureus; test: Antimicrobial activity against methicillin-resistant Staphylococcus aureus ATCC 43300 measured after 18 hrs by broth microdilution method; conditions: ATCC 43300, 18 h
[15] = tested on: Staphylococcus aureus; test: Antimicrobial activity against penicillin-resistant Staphylococcus aureus ATCC 29213 assessed as ratio of MIC after and before 15 serial passages preincubated followed by replating and measured after 24 hrs

| Structure (SMILES) | MIC [1] | MIC [2] | MIC [3] | MIC [4] | MIC [5] | MIC [6] | MIC [7] | MIC [8] | MIC [9] | MIC [10] | MIC [11] | MIC [12] | MIC [13] | MIC [14] | Ratio [15] |
| --- | --- | --- | --- | --- | --- | --- | --- | --- | --- | --- | --- | --- | --- | --- | --- |
| C[n+]1c(/C=C/c2c[nH]c3ccccc23)cc(N2CCOCC2)c2ccccc21.[I-] | 16 µg/mL | 64 µg/mL | 16 µg/mL | 16 µg/mL | > 64 µg/mL | 16 µg/mL | > 64 µg/mL | > 64 µg/mL | 16 µg/mL | 32 µg/mL | 32 µg/mL | > 64 µg/mL | > 64 µg/mL | 32 µg/mL |  |
| C[n+]1c(/C=C/c2c[nH]c3ccccc23)ccc2ccccc21.[I-] | 32 µg/mL | > 64 µg/mL | 32 µg/mL | 32 µg/mL | > 64 µg/mL | 32 µg/mL | > 64 µg/mL | > 64 µg/mL | 32 µg/mL | 64 µg/mL | 32 µg/mL | > 64 µg/mL | > 64 µg/mL | 32 µg/mL |  |
| C[n+]1c(/C=C/c2cc3ccccc3[nH]2)ccc2ccccc21.[I-] | 32 µg/mL | 64 µg/mL | 32 µg/mL | 32 µg/mL | > 64 µg/mL | 32 µg/mL | > 64 µg/mL | > 64 µg/mL | 32 µg/mL | 64 µg/mL | 32 µg/mL | > 64 µg/mL | 64 µg/mL | 64 µg/mL |  |
| CCN(CC)CCNc1cc(/C=C/c2cc3ccccc3[nH]2)[n+](C)c2ccccc12.[I-] | 16 µg/mL | 64 µg/mL | 64 µg/mL | 32 µg/mL | > 64 µg/mL | 16 µg/mL | > 64 µg/mL | > 64 µg/mL | 16 µg/mL | 64 µg/mL | 32 µg/mL | > 64 µg/mL | 64 µg/mL | 64 µg/mL |  |
| CCN(CC)CCNc1cc(/C=C/c2c[nH]c3ccccc23)[n+](C)c2ccccc12.[I-] | 16 µg/mL | 64 µg/mL | 64 µg/mL | 32 µg/mL | > 64 µg/mL | 16 µg/mL | > 64 µg/mL | > 64 µg/mL | 16 µg/mL | 64 µg/mL | 32 µg/mL | > 64 µg/mL | 64 µg/mL | 32 µg/mL |  |
| C[n+]1c(/C=C/c2c[nH]c3ccccc23)cc(NCCN2CCCC2)c2ccccc21.[I-] | 16 µg/mL | 64 µg/mL | 64 µg/mL | 32 µg/mL | > 64 µg/mL | 16 µg/mL | > 64 µg/mL | > 64 µg/mL | 32 µg/mL | 64 µg/mL | 64 µg/mL | > 64 µg/mL | 64 µg/mL | 64 µg/mL |  |
| C[n+]1c(/C=C/c2cc3ccccc3[nH]2)cc(N2CCCC2)c2ccccc21.[I-] | 2 µg/mL | 32 µg/mL | 16 µg/mL | 8 µg/mL | > 64 µg/mL | 4 µg/mL | > 64 µg/mL | > 64 µg/mL | 8 µg/mL | 16 µg/mL | 8 µg/mL | 64 µg/mL | 32 µg/mL | 8 µg/mL |  |
| CCn1cc(C(=O)O)c(=O)c2cc(F)c(N3CCNCC3)cc21 [NORFLOXACIN] |  |  |  |  |  |  |  |  |  |  |  |  |  |  | 500 |
| O=C(O)c1cn(C2CC2)c2cc(N3CCNCC3)c(F)cc2c1=O [CIPROFLOXACIN] | 2 µg/mL (≈ 6.04 µM) | < 0.125 µg/mL | 4 µg/mL (≈ 12.1 µM) | 32 µg/mL (≈ 96.6 µM) | 64 µg/mL (≈ 193 µM) | < 0.125 µg/mL |  | 64 µg/mL (≈ 193 µM) | 2 µg/mL (≈ 6.04 µM) | > 64 µg/mL | > 64 µg/mL | 2 µg/mL (≈ 6.04 µM) | > 64 µg/mL | 2 µg/mL (≈ 6.04 µM) |  |
| CC1CCN(c2cc(/C=C/c3cc4ccccc4[nH]3)[n+](C)c3ccccc23)CC1.[I-] | 4 µg/mL | 32 µg/mL | 8 µg/mL | 4 µg/mL | > 64 µg/mL | 4 µg/mL | > 64 µg/mL | > 64 µg/mL | 8 µg/mL | 8 µg/mL | 8 µg/mL | > 64 µg/mL | 32 µg/mL | 8 µg/mL |  |
| C[n+]1c(/C=C/c2c[nH]c3ccccc23)cc(NCCN2CCOCC2)c2ccccc21.[I-] | 32 µg/mL | > 64 µg/mL | 64 µg/mL | 32 µg/mL | > 64 µg/mL | 64 µg/mL | > 64 µg/mL | > 64 µg/mL | 64 µg/mL | 64 µg/mL | 64 µg/mL | > 64 µg/mL | > 64 µg/mL | 64 µg/mL |  |
| C[n+]1c(/C=C/c2cc3ccccc3[nH]2)cc(N2CCOCC2)c2ccccc21.[I-] | 16 µg/mL | 64 µg/mL | 64 µg/mL | 16 µg/mL | > 64 µg/mL | 16 µg/mL | > 64 µg/mL | > 64 µg/mL | 8 µg/mL | 32 µg/mL | 16 µg/mL | > 64 µg/mL | 64 µg/mL | 16 µg/mL |  |
| CC1(C)S[C@@H]2[C@H](NC(=O)Cc3ccccc3)C(=O)N2[C@H]1C(=O)O [PENICILLIN G] | > 64 µg/mL | 1 µg/mL (≈ 2.99 µM) | 0.5 µg/mL (≈ 1.5 µM) | 0.25 µg/mL (≈ 0.748 µM) | > 64 µg/mL | < 0.125 µg/mL | > 64 µg/mL | > 64 µg/mL | 32 µg/mL (≈ 95.7 µM) | > 64 µg/mL | > 64 µg/mL | 64 µg/mL (≈ 191 µM) | > 64 µg/mL | > 64 µg/mL |  |
| C[n+]1c(/C=C/c2c[nH]c3ccccc23)cc(N2CCCC2)c2ccccc21.[I-] | 2 µg/mL | 32 µg/mL | 16 µg/mL | 4 µg/mL | > 64 µg/mL | 4 µg/mL | > 64 µg/mL | > 64 µg/mL | 8 µg/mL | 8 µg/mL | 4 µg/mL | 64 µg/mL | 32 µg/mL | 16 µg/mL |  |
| C[n+]1c(/C=C/c2cc3ccccc3[nH]2)cc(NCCN2CCCCC2)c2ccccc21.[I-] | 16 µg/mL | 32 µg/mL | 64 µg/mL | 16 µg/mL | > 64 µg/mL | 16 µg/mL | > 64 µg/mL | > 64 µg/mL | 16 µg/mL | 32 µg/mL | 32 µg/mL | 64 µg/mL | 64 µg/mL | 32 µg/mL |  |
